Reference: patent US7375180B2, “Methods and compositions related to IRM compounds and Toll-like receptor 8” (3M Innovative Properties Company, priority 2003, dated 2008)

Biological target: T1, TLR8 (Homo sapiens, UniProt Q9NR97)
T1 sequence (Q9NR97 27-1041): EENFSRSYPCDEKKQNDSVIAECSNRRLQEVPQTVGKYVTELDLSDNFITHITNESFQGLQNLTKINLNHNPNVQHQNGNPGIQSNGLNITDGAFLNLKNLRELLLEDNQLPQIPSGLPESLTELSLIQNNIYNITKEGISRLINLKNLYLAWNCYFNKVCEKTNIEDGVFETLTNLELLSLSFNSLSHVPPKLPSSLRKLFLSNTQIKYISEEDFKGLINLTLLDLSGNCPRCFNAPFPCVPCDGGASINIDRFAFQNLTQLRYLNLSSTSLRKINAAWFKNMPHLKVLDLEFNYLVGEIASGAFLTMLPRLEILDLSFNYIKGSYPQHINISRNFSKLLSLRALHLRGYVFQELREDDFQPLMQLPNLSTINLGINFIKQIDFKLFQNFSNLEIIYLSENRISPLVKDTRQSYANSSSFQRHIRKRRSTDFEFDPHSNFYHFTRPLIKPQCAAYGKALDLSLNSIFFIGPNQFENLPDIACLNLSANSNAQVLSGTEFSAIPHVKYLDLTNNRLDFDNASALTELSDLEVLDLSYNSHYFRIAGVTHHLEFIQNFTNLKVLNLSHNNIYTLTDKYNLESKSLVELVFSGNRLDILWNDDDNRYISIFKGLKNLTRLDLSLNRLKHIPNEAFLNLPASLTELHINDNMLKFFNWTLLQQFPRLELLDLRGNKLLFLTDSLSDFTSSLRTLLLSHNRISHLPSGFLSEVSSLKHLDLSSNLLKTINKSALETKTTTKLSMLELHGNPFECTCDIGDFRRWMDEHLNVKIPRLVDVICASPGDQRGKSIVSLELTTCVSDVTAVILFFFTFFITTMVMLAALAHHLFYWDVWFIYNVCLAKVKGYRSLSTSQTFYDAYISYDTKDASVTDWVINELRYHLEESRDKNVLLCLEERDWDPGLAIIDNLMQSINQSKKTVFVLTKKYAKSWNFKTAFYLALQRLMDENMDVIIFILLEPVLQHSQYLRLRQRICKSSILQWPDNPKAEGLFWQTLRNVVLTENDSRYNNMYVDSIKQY
Test: Dose dependent TLR8-mediated NF-κB-luciferase response in HEK293 cells transfected with TLR8 (Example 5)
Format: cell-based
Design: expressed in transfected cells; host or cells: HEK293 (ATCC CRL-1573), pIRES vector, G-418 selected, co-transfected with NFkB-luc reporter
Protocol: Twenty-four hours before transfection, HEK293 cells were adhered to a 10 cm dish (Corning 430167, Corning Inc., Corning, N.Y.) at 37° C., 8% CO2. The cells were co-transfected with (1) pIRES (BD Biosciences Clontech, Palo Alto, Calif.) either (a) unmodified (HEK293-vector) or (b) containing human TLR8 (HEK293-TLR8), and (2) NFkB-luc reporter (Stratagene, La Jolla, Calif.) in a 10:1 ratio with Fugene 6 transfection reagent (Roche Diagnostics Corp., Indianapolis, Ind.) following the manufacturer's instructions. The plates were incubated for 24 hours following transfection and then selected in G-418 (400 μg/mL) for two weeks. The G-418-resistant cells containing either the TLR8 or empty vector were expanded in HEK293 media supplemented with G-418 for stimulation experiments.
The transfected cells were plated in white opaque 96 well plates (Costar 3917, Corning Inc., Corning, N.Y.) at a concentration of 5×10^4 cells per well in 100 μL of HEK293 media and incubated at 37° C., 8% CO2 for 4 hours. The cells were stimulated with 1 μL of IRM compounds at 1 mM in DMSO (final IRM concentration of 10 μM) or 1 μL DMSO as a control. The plates were then incubated an additional 16 hours at 37° C., 5% CO2. Luminescence was measured on an LMAX luminometer (Molecular Devices Corp., Sunnyvale, Calif.).
HEK293 cells were transfected as described in Example 1. HEK293 cultures were incubated with IRM compound or a negative control compound (1,5-dihydro-1-(2-methylpropyl)-4H-imidazo[4,5-c]quinolin-4-one, U.S. Pat. No. 4,698,348, Example 71) at concentrations of 0.1 μM, 0.3 μM, 1.0 μM, 3.0 μM, 10 μM, or 30 μM, or a vehicle control. Cultures were otherwise incubated as described in Example 1. Luciferase signals were read in RLU (Relative Luciferase Units) as described in Example 1.

| SMILES | Fold increase over vehicle (0.1 μM) [fold] | Fold increase over vehicle (0.3 μM) [fold] | Fold increase over vehicle (1.0 μM) [fold] | Fold increase over vehicle (3.0 μM) [fold] | Fold increase over vehicle (10 μM) [fold] | Fold increase over vehicle (30 μM) [fold] |
| --- | --- | --- | --- | --- | --- | --- |
| COCCc1nc2c(N)nc3ccccc3c2n1CCCCNC(=O)c1cnc2ccccc2c1 [IRM37, N-{4-[4-amino-2-(2-methoxyethyl)-1H-imidazo[4,5-c]quinolin-1-yl]butyl}quinoline-3-carboxamide] | 0.7 | 0.9 | 1.0 | 3.2 | 5.2 | 11.8 |
| COCCc1nc2c(N)nc3ccccc3c2n1CCCCNC(=O)c1cnc2ccccc2n1 [IRM38, N-{4-[4-amino-2-(2-methoxyethyl)-1H-imidazo[4,5-c]quinolin-1-yl]butyl}quinoxaline-2-carboxamide] | 0.8 | 0.8 | 1.3 | 3.8 | 6.9 | 7.8 |
| CCCCc1nc2c(N)nc3ccccc3c2n1CCCNC(=O)N1CCOCC1 [IRM39, N-[3-(4-amino-2-butyl-1H-imidazo[4,5-c]quinolin-1-yl)propyl]morpholine-4-carboxamide] | 0.9 | 1.1 | 1.2 | 1.5 | 6.8 | 18.0 |
| CCCCc1nc2c(N)nc3ccccc3c2n1CCCS(C)(=O)=O [IRM40, 2-butyl-1-[3-(methylsulfonyl)propyl]-1H-imidazo[4,5-c]quinolin-4-amine] | 1.0 | 0.9 | 0.9 | 1.3 | 3.1 | 16.4 |
| COCCc1nc2c(N)nc3c(c2n1CCOCCNC(=O)Nc1ccccc1)CCCC3 [IRM41, N-(2-{2-[4-amino-2-(methoxyethyl)-6,7,8,9-tetrahydro-1H-imidazo[4,5-c]quinolin-1-yl]ethoxy}ethyl)-n′-phenylurea] | 0.7 | 0.9 | 1.0 | 3.3 | 12.7 | 25.4 |
| CCCCc1nc2c(N)nc3ccccc3c2n1CCS(=O)(=O)CC [IRM42, 2-butyl-1-[2-(ethylsulfonyl)ethyl]-1H-imidazo[4,5-c]quinolin-4-amine] | 1.0 | 0.9 | 1.3 | 3.8 | 13.2 | 26.0 |
| CCOCC(=O)NC(C)(C)Cn1c(COCC)nc2c(N)nc3ccccc3c21 [IRM43, N-{2-[4-amino-2-(ethoxymethyl)-1H-imidazo[4,5-c]quinolin-1-yl]-1,1-dimethylethyl}-2-ethoxyacetamide] | 2.3 | 2.3 | 3.3 | 2.1 | 5.6 | 17.0 |
| CCc1nc2c(N)nc3ccccc3c2n1CCS(C)(=O)=O [IRM44, 2-ethyl-1-[2-(methylsulfonyl)ethyl]-1H-imidazo[4,5-c]quinolin-4-amine] | 0.9 | 1.1 | 1.0 | 0.9 | 2.5 | 12.5 |
| CCCCc1nc2c(N)nc3ccccc3c2n1CCS(C)(=O)=O [IRM45, 2-butyl-1-[2-(methylsulfonyl)ethyl]-1H-imidazo[4,5-c]quinolin-4-amine] | 1.5 | 2.5 | 6.7 | 12.1 | 17.0 | 24.3 |
